In patent US20120101095A1, “ALKOXY-THIENOPYRIMIDINES AS TGF-BETA RECEPTOR KINASE MODULATORS” (priority 2009, published 2012):

target: T1, GST-ALK5 (Homo sapiens, UniProt P36897); assay: In-vitro (enzyme) kinase assay, 384-well flashplate, GST-SMAD2 substrate; type: biochemical; conditions: 31.2 nM GST-ALK5, 439 nM GST-SMAD2, 3 mM ATP, 30° C., 45 min
T1 sequence (P36897 34-503): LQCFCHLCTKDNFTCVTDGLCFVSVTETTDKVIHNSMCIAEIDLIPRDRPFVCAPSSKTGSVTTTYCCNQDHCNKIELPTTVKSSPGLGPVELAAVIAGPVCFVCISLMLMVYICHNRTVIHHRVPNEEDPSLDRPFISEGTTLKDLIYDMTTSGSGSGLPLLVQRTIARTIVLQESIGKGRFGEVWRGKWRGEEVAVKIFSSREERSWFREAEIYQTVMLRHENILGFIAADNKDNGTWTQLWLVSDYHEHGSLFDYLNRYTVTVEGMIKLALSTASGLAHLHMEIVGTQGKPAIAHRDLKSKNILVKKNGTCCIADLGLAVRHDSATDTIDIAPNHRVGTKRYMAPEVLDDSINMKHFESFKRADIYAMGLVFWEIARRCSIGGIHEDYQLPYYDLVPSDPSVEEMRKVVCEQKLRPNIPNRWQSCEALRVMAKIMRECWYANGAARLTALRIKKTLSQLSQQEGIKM
Experimental: In-Vitro (Enzyme) Assay for Determination of the Efficacy of Inhibitors of the Inhibition of TGF-Beta-Mediated Effects
The kinase assay was carried out as 384-well flashplate assay. 31.2 nM of GST-ALK5, 439 nM of GST-SMAD2 and 3 mM of ATP (with 0.3 μCi of ^33P-ATP/well) were incubated in a total volume of 35 μl (20 mM of HEPES, 10 mM of MgCl2, 5 mM of MnCl2, 1 mM of DTT, 0.1% of BSA, pH 7.4) without or with test substance (5-10 concentrations) at 30° C. for 45 min. The reaction was stopped using 25 μl of 200 mM EDTA solution, filtered with suction at room temperature after 30 min, and the wells were washed with 3 times 100 μl of 0.9% NaCl solution. Radioactivity was measured in the TopCount. The IC50 values were calculated using RS1 (Table 1). Above and below, all temperatures were indicated in ° C.

IC50	Compound
0.1 to 0.5 µM	NC(=O)c1sc2nc(O[C@H]3CNC(=O)C3)nc(-c3cccc(Cl)c3)c2c1N [No 63, 5-Amino-4-(3-chloro-phenyl)-2-((R)-5-oxo-pyrrolidin-3-yloxy)-thieno[2,3-d]pyrimidine-6-carboxylic acid amide]
< 0.1 µM	NC(=O)c1sc2nc(OC/C=C/CO)nc(-c3cccc(Cl)c3)c2c1N [No 71, 5-Amino-4-(3-chloro-phenyl)-2-((E)-4-hydroxy-but-2-enyloxy)-thieno[2,3-d]pyrimidine-6-carboxylic acid amide]
< 0.1 µM	Cn1nccc1COc1nc(-c2cccc(Cl)c2)c2c(N)c(C(N)=O)sc2n1 [No 47, 5-Amino-4-(3-chloro-phenyl)-2-(2-methyl-2H-pyrazol-3-ylmethoxy)-thieno[2,3-d]pyrimidine-6-carboxylic acid amide]
< 0.1 µM	COc1nc(-c2ccc(C)o2)c2c(N)c(C(N)=O)sc2n1 [No 19, 5-Amino-2-methoxy-4-(5-methyl-furan-2-yl)-thieno[2,3-d]pyrimidine-6-carboxylic acid amide]
< 0.1 µM	NC(=O)c1sc2nc(OCC3CC3)nc(-c3cccc(Cl)c3)c2c1N [No 4, 5-Amino-4-(3-chloro-phenyl)-2-cyclopropylmethoxy-thieno[2,3-d]pyrimidine-6-carboxylic acid amide]
0.1 to 0.5 µM	Cc1ccc(-c2nc(OCc3ccn(C)n3)nc3sc(C(N)=O)c(N)c23)o1 [No 32, 5-Amino-4-(5-methyl-furan-2-yl)-2-(1-methyl-1H-pyrazol-3-ylmethoxy)-thieno[2,3-d]pyrimidine-6-carboxylic acid amide]
< 0.1 µM	NC(=O)c1sc2nc(OCCn3cccn3)nc(-c3cccc(Cl)c3)c2c1N [No 42, 5-Amino-4-(3-chloro-phenyl)-2-(2-pyrazol-1-yl-ethoxy)-thieno[2,3-d]pyrimidine-6-carboxylic acid amide]
0.1 to 0.5 µM	Cc1ccc(-c2nc(OCCCO)nc3sc(C(N)=O)c(N)c23)o1 [No 22, 5-Amino-2-(3-hydroxy-propoxy)-4-(5-methyl-furan-2-yl)-thieno[2,3-d]pyrimidine-6-carboxylic acid amide]
< 0.1 µM	NC(=O)c1sc2nc(OCC#CCO)nc(-c3cccc(Cl)c3)c2c1N [No 59, 5-Amino-4-(3-chloro-phenyl)-2-(4-hydroxy-but-2-ynyloxy)-thieno[2,3-d]pyrimidine-6-carboxylic acid amide]
< 0.1 µM	Cc1cccc(-c2nc(OCc3cn(C)cn3)nc3sc(C(N)=O)c(N)c23)n1 [No 40, 5-Amino-2-(1-methyl-1H-imidazol-4-ylmethoxy)-4-(6-methyl-pyridin-2-yl)-thieno[2,3-d]pyrimidine-6-carboxylic acid amide]
0.1 to 0.5 µM	NC(=O)c1sc2nc(OCCCN3CCCC3=O)nc(-c3cccc(Cl)c3)c2c1N [No 54, 5-Amino-4-(3-chloro-phenyl)-2-[3-(2-oxo-pyrrolidin-1-yl)-propoxy]-thieno[2,3-d]pyrimidine-6-carboxylic acid amide]
0.1 to 0.5 µM	CNC(=O)CCCOc1nc(-c2cccc(Cl)c2)c2c(N)c(C(N)=O)sc2n1 [No 70, 5-Amino-4-(3-chloro-phenyl)-2-(3-methylcarbamoyl-propoxy)-thieno[2,3-d]pyrimidine-6-carboxylic acid amide]
< 0.1 µM	COc1nc(-c2cccc(Cl)c2)c2c(N)c(C(N)=O)sc2n1 [No 6, 5-Amino-4-(3-chloro-phenyl)-2-methoxy-thieno[2,3-d]pyrimidine-6-carboxylic acid amide]
> 1 µM	NC(=O)c1sc2nc(OCC3CCC3)nc(-c3cccc(C(F)(F)F)c3)c2c1N [No 10, 5-Amino-2-cyclobutylmethoxy-4-(3-trifluoromethyl-phenyl)-thieno[2,3-d]pyrimidine-6-carboxylic acid amide]
0.1 to 0.5 µM	Cc1cccc(-c2nc(OCc3ccc(OCCN4CCOCC4)cc3)nc3sc(C(N)=O)c(N)c23)n1 [No 35, 5-Amino-4-(6-methyl-pyridin-2-yl)-2-[4-(2-morpholin-4-yl-ethoxy)-benzyloxy]-thieno[2,3-d]pyrimidine-6-carboxylic acid amide]
< 0.1 µM	NC(=O)c1sc2nc(OCCN3CCOC3=O)nc(-c3cccc(Cl)c3)c2c1N [No 57, 5-Amino-4-(3-chloro-phenyl)-2-[2-(2-oxo-oxazolidin-3-yl)-ethoxy]-thieno[2,3-d]pyrimidine-6-carboxylic acid amide]

IC50	Compound
< 0.1 µM	N#CCCOc1nc(-c2cccc(Cl)c2)c2c(N)c(C(N)=O)sc2n1 [No 72, 5-Amino-4-(3-chloro-phenyl)-2-(2-cyano-ethoxy)-thieno[2,3-d]pyrimidine-6-carboxylic acid amide]
< 0.1 µM	Cc1cccc(-c2nc(OCCO)nc3sc(C(N)=O)c(N)c23)n1 [No 26, 5-Amino-2-(2-hydroxy-ethoxy)-4-(6-methyl-pyridin-2-yl)-thieno[2,3-d]pyrimidine-6-carboxylic acid amide]
0.1 to 0.5 µM	NC(=O)c1sc2nc(OC[C@H]3CCC(=O)N3)nc(-c3cccc(Cl)c3)c2c1N [No 77, 5-Amino-4-(3-chloro-phenyl)-2-((R)-5-oxo-pyrrolidin-2-ylmethoxy)-thieno[2,3-d]pyrimidine-6-carboxylic acid amide]
> 1 µM	Cc1ccc(-c2nc(OCCN3CCOCC3)nc3sc(C(N)=O)c(N)c23)o1 [No 20, 5-Amino-4-(5-methyl-furan-2-yl)-2-(2-morpholin-4-yl-ethoxy)-thieno[2,3-d]pyrimidine-6-carboxylic acid amide]
< 0.1 µM	Cn1ccc(COc2nc(-c3cccc(Cl)c3)c3c(N)c(C(N)=O)sc3n2)n1 [No 46, 5-Amino-4-(3-chloro-phenyl)-2-(1-methyl-1H-pyrazol-3-ylmethoxy)-thieno[2,3-d]pyrimidine-6-carboxylic acid amide]
0.5 to 1 µM	Cc1ccc(-c2nc(OCc3ccncc3)nc3sc(C(N)=O)c(N)c23)o1 [No 30, 5-Amino-4-(5-methyl-furan-2-yl)-2-(pyridin-4-ylmethoxy)-thieno[2,3-d]pyrimidine-6-carboxylic acid amide]
0.1 to 0.5 µM	Cc1ccc(-c2nc(OCCn3cccn3)nc3sc(C(N)=O)c(N)c23)o1 [No 29, 5-Amino-4-(5-methyl-furan-2-yl)-2-(2-pyrazol-1-yl-ethoxy)-thieno[2,3-d]pyrimidine-6-carboxylic acid amide]
< 0.1 µM	Cc1ncsc1CCOc1nc(-c2cccc(Cl)c2)c2c(N)c(C(N)=O)sc2n1 [No 51, 5-Amino-4-(3-chloro-phenyl)-2-[2-(4-methyl-thiazol-5-yl)-ethoxy]-thieno[2,3-d]pyrimidine-6-carboxylic acid amide]
< 0.1 µM	Cc1cccc(-c2nc(OCCCn3cccn3)nc3sc(C(N)=O)c(N)c23)n1 [No 49, 5-Amino-4-(6-methyl-pyridin-2-yl)-2-(3-pyrazol-1-yl-propoxy)-thieno[2,3-d]pyrimidine-6-carboxylic acid amide]
0.1 to 0.5 µM	NC(=O)c1sc2nc(OCCOCCO)nc(-c3cccc(Cl)c3)c2c1N [No 66, 5-Amino-4-(3-chloro-phenyl)-2-[2-(2-hydroxy-ethoxy)-ethoxy]-thieno[2,3-d]pyrimidine-6-carboxylic acid amide]
0.1 to 0.5 µM	NC(=O)c1sc2nc(OCCn3ccnc3)nc(-c3cccc(Cl)c3)c2c1N [No 43, 5-Amino-4-(3-chloro-phenyl)-2-(2-imidazol-1-yl-ethoxy)-thieno[2,3-d]pyrimidine-6-carboxylic acid amide]
< 0.1 µM	Cc1cccc(-c2nc(OCc3ccn(C)n3)nc3sc(C(N)=O)c(N)c23)n1 [No 28, 5-Amino-2-(1-methyl-1H-pyrazol-3-ylmethoxy)-4-(6-methyl-pyridin-2-yl)-thieno[2,3-d]pyrimidine-6-carboxylic acid amide]
< 0.1 µM	Cc1ccc(-c2nc(OCc3cnn(C)c3)nc3sc(C(N)=O)c(N)c23)o1 [No 24, 5-Amino-4-(5-methyl-furan-2-yl)-2-(1-methyl-1H-pyrazol-4-ylmethoxy)-thieno[2,3-d]pyrimidine-6-carboxylic acid amide]
< 0.1 µM	NC(=O)COc1nc(-c2cccc(Cl)c2)c2c(N)c(C(N)=O)sc2n1 [No 56, 5-Amino-2-carbamoylmethoxy-4-(3-chloro-phenyl)-thieno[2,3-d]pyrimidine-6-carboxylic acid amide]
0.1 to 0.5 µM	Cc1ccc(-c2nc(O[C@@H](C)[C@H](C)O)nc3sc(C(N)=O)c(N)c23)o1 [No 36, 5-Amino-2-((1S,2S)-2-hydroxy-1-methyl-propoxy)-4-(5-methyl-furan-2-yl)-thieno[2,3-d]pyrimidine-6-carboxylic acid amide]
0.1 to 0.5 µM	NC(=O)c1sc2nc(OCC3CCC3)nc(-c3cccc(Cl)c3)c2c1N [No 9, 5-Amino-4-(3-chloro-phenyl)-2-cyclobutylmethoxy-thieno[2,3-d]pyrimidine-6-carboxylic acid amide]
